Source: patent US4681899A, “Method of preventing the growth of malaria parasites in erythrocytes” (priority 1985, dated 1987)

Experiments:
[1] = test system: mice; settings: oral administration; cited from earlier work
[2] = test system: p. Vinckei; test: in vivo efficacy in mice infected with p. Vinckei (FIG. 4); settings: oral, 3 mg/kg body weight
Procedure: Mice: Four to eight-week-old BALB/C male and female mice from a breeding colony were used.
Parasite: Stabilates of p. Vinchei TCC 30091) and p. Falciparum (FCR-3 knobless) were used.
In vivo method: The tail vein was nicked and a blood droplet was smeared.
The smears were stained with Giemsa, infected erythrocytes (which contain trophozoite and schizont stage parasites) were counted and percent parasitemia estimated.
Approximately 10^5 p. Vinchei parasites were injected intraperitoneally (I.P.) into a donor mouse and at the time of ascending parasitemia, the infected mouse was exsanguinated and red blood cells are prepared for in vivo experimentation.
(§1) A control and a drug concentration (approximately 3 mg/kg body weight/day) were provided orally via drinking water. Water containing drugs were prepared daily. Water intake were monitored daily to insure proper dosage and hydration levels. A commercial food pellet were provided ad libitum.
To each mouse, 10^6 parasitized red blood cells were injected I.P., and daily blood samples were collected from the tail vein to monitor the levels of parasitemia.
Five mice were used for each group tested.
During the experimentation, we monitored both the percent parasitemia and percent survival rate of each experimental group.
Using p. Vinckei and a mice model, Ohnishi has also tested the efficacy of W-7.

[3] = test system: sickle red cells; settings: studies on sickle red cells; cited from earlier work
[4] = test system: beta-adrenergic; settings: cited from earlier work
[5] = test system: mice; test: side effects in mice at 3 mg/kg/day orally; assay type: in vivo
Procedure: as §1
Ohnishi tested an in vivo efficacy of these drugs using mice infected by p. Falciparum.

[6] = test system: p. Falciparum; test: in vivo efficacy in mice infected by p. Falciparum (FIG. 3); settings: 3 mg/kg/day orally
[7] = test system: man; settings: adults; mixture of l-form and d-form; cited from earlier work

In the case of NCCCCCCNS(=O)(=O)c1cccc2c(Cl)cccc12 [W-7], the “acute LD50” value [1] is listed as 75 mg/kg, the “life span after infection” value [2] is listed as “extended their life span after infection” and the “suppression of the growth of parasites” value [2] is listed as “suppressed the growth of parasites”. The “effect on red cell metabolism and cell sickling” value [3] was “altered the red cell metabolism and thus affected the cell sickling”.

In the case of C=CCc1ccccc1OCC(O)CNC(C)C (stereo not drawn) [alprenolol], the “effect on red cell metabolism and cell sickling” value [3] is listed as “altered the red cell metabolism and thus affected the cell sickling”.

In the case of CC(C)NC[C@@H](O)COc1cccc2ccccc12 [d-propranolol], the “beta-adrenergic blocker activity of the form” value [4] is given as “inactive beta-adrenergic blocker”, the side effect [5] is given as “no side effect was observed” and the “inhibition of the growth of parasites in mice” value [6] is given as “effectively inhibited the growth of parasites in mice”.

In the case of C=CCc1ccccc1OC[C@@H](O)CNC(C)C [l-alprenolol], the “acute LD50” value [1] is given as 278 mg/kg.

For CC(C)NC[C@H](O)COc1cccc2ccccc12 [l-propranolol], the “beta-adrenergic blocker activity of the form” value [4] is listed as “active beta-adrenergic blocker”, the side effect [5] is listed as “no side effect was observed” and the “inhibition of the growth of parasites in mice” value [6] is listed as “effectively inhibited the growth of parasites in mice”.

For CC(C)NCC(O)COc1cccc2ccccc12 (stereo not drawn) [propranolol], the “effect on red cell metabolism and cell sickling” value [3] is listed as “altered the red cell metabolism and thus affected the cell sickling”, the “usual effective dose in man as an anti-hypertensive drug (daily)” value [7] is listed as 160-480 mg daily and the “usual effective dose in man as an anti-hypertensive drug (per body weight)” value [7] is listed as 3-8 mg/kg body weight/day.
